Format in all cases: biochemical
One assay has as its target T1, Recombinant human HDAC1 (Homo sapiens, UniProt Q13547).
T1 construct: FLAG (C); made in house
Put plainly: Human HDAC enzyme inhibitor Fluor-de-Lys assay, HDAC1. Put shortly: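 Fluor-de-Lys format at room temperature (23° C.): compounds titrated 10-point, 1:3, preincubated with HDAC before substrate addition; HDAC1 run at 0.3 nM enzyme with 20 μM BML-KI104. Developer with excess HDAC inhibitor ends the reaction, and trypsin-liberated AMC fluorescence is the read-out.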

The target of another assay is T2, Recombinant human HDAC2 (Homo sapiens, UniProt Q92769).
T2 construct: Full length human HDAC2-FLAG was expressed in baculovirus infected Sf9 cells; FLAG (C); made in house; host or cells: Sf9 (baculovirus)
T2 sequence (Q92769 whole entry): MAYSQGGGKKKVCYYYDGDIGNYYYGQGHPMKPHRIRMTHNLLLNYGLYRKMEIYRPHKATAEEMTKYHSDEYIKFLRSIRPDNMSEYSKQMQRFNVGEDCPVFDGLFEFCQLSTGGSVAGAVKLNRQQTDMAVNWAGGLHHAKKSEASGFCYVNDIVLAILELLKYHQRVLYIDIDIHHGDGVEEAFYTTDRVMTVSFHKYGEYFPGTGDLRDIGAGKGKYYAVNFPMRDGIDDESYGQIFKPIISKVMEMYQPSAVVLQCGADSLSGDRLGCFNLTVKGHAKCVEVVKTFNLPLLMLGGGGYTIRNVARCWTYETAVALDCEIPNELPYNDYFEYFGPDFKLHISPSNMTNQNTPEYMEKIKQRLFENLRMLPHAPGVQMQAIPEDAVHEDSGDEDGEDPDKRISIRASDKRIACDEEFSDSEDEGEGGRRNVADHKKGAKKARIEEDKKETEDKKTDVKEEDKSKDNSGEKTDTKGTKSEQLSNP
Put plainly: Human HDAC enzyme inhibitor Fluor-de-Lys assay, HDAC2. Put shortly: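 Fluor-de-Lys format at room temperature (23° C.): compounds titrated 10-point, 1:3, preincubated with HDAC before substrate addition. Developer with excess HDAC inhibitor ends the reaction, and trypsin-liberated AMC fluorescence is the read-out.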

Assay [1] addresses T3, Recombinant human HDAC3/SMRT heterodimer (Homo sapiens, UniProt O15379).
T3 construct: FLAG (C); made in house
Put plainly: Human HDAC enzyme inhibitor Fluor-de-Lys assay, HDAC3/SMRT.

The next assay deals with T4, HDAC6 (Homo sapiens, UniProt Q9UBN7).
T4 sequence (Q9UBN7 1-1215): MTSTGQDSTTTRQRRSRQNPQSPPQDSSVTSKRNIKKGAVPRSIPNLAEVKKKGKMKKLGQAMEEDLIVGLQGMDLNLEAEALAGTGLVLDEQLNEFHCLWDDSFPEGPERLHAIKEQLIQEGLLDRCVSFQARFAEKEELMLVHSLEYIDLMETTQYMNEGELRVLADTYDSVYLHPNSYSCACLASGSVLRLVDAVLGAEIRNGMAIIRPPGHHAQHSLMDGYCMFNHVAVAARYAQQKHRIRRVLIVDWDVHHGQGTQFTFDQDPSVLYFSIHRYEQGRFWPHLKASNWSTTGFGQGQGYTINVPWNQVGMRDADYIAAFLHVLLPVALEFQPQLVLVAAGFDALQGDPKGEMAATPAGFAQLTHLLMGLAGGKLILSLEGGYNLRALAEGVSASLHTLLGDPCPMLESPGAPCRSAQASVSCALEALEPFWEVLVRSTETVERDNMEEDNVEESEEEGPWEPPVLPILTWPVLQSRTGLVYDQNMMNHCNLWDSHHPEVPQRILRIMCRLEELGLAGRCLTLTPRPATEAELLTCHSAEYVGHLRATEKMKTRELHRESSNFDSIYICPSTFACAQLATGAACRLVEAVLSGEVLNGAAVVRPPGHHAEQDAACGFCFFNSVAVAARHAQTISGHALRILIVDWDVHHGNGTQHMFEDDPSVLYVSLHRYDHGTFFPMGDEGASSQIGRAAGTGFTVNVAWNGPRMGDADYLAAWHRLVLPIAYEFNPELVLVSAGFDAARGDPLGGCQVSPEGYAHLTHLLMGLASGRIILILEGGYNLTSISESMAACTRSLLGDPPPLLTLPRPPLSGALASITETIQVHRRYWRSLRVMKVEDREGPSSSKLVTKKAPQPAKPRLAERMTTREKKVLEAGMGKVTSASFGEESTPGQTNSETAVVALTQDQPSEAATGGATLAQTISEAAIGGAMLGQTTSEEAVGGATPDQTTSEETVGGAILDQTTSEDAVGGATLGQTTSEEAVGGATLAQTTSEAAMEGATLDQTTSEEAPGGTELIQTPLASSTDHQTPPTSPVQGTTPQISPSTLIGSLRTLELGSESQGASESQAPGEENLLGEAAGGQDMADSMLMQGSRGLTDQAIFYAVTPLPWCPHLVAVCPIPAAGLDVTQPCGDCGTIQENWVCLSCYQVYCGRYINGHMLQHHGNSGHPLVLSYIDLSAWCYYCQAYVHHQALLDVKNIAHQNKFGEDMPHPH
Put plainly: Human HDAC enzyme inhibitor Fluor-de-Lys assay, HDAC6.

Another assay addresses T5, Recombinant human HDAC8 (Homo sapiens, UniProt Q9BY41).
T5 construct: purchased Enzo Life Sciences BML-SE145-0100
T5 sequence (Q9BY41 1-377): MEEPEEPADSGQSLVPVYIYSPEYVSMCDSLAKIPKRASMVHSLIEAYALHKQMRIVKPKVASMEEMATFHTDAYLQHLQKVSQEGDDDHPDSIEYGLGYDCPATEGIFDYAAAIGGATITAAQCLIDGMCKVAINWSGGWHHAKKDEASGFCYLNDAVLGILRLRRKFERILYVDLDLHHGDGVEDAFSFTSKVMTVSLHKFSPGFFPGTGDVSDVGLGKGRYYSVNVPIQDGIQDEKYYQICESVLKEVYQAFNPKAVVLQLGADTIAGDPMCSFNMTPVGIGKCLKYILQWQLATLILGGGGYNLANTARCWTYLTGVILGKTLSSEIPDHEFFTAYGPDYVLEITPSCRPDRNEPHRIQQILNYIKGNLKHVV
Put plainly: Human HDAC enzyme inhibitor Fluor-de-Lys assay, HDAC8.

Structures are written as SMILES. pIC50: −log10 of the molar value.

T1 sequence (Q13547 whole entry): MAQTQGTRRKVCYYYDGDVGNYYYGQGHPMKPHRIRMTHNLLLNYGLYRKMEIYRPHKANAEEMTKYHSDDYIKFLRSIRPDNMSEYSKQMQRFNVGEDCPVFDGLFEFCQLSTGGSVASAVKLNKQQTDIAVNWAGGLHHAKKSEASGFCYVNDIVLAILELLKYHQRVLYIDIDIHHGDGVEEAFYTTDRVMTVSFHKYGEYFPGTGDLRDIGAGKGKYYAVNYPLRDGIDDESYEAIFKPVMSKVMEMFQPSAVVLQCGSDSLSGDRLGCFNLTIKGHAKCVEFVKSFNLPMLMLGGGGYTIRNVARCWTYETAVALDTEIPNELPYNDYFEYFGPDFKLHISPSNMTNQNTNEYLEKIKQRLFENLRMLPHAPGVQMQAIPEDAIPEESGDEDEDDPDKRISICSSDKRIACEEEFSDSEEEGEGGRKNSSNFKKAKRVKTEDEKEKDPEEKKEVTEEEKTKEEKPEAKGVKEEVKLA
T3 sequence (O15379 whole entry): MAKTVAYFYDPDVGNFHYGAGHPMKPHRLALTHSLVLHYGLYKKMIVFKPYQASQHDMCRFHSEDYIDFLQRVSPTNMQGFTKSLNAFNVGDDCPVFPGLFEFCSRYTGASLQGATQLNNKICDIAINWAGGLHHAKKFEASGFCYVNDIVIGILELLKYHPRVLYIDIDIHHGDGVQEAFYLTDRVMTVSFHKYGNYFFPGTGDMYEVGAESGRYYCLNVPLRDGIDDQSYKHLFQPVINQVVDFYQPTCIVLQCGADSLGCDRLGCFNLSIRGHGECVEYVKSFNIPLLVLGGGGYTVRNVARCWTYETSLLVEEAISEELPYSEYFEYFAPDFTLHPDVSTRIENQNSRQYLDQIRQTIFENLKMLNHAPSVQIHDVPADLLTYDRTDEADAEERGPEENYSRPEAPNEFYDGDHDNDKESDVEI
T3 sequence (Q9Y618 1-899 partner limits assumed): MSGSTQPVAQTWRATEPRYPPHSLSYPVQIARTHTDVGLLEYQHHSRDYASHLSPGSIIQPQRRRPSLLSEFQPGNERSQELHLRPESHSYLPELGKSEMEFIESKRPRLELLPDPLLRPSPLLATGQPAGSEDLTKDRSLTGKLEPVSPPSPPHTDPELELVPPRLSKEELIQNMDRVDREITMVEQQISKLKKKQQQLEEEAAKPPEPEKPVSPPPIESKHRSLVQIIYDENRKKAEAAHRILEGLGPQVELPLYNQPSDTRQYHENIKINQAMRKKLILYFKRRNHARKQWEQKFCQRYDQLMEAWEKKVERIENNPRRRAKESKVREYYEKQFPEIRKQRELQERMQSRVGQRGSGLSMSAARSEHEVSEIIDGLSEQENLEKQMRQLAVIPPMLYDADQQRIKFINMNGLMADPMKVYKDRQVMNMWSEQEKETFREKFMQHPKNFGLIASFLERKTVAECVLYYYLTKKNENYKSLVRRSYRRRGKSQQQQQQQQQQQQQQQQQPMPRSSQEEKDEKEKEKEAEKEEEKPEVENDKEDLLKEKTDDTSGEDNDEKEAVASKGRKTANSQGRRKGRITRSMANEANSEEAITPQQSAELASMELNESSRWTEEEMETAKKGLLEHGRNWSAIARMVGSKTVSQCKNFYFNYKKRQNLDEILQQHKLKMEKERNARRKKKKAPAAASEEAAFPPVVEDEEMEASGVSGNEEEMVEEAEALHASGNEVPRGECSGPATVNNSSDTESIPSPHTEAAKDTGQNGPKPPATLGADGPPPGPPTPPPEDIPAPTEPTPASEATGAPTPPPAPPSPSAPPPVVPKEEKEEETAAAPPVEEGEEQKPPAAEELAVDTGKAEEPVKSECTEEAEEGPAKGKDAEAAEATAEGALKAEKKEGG

Consider `C=CCN1CCC2(CC1)C[C@@H]2C(=O)N[C@@H](CCCCCC(=O)CC)c1ncc(-c2ccc3c(c2)C2CCC3N2CC=C)[nH]1` (stereo partly drawn) [Compound 179, (1S)—N-{(1S)-7-oxo-1-[5-(9-prop-2-en-1-yl-1,2,3,4-tetrahydro-1,4-epiminonaphthalen-6-yl)-1H-imidazol-2-yl]nonyl}-6-prop-2-en-1-yl-6-azaspiro[2.5]octane-1-carboxamide], for which the pIC50 at Recombinant human HDAC1 is 7.23; at Recombinant human HDAC2, 6.42; in assay [1], 7.76; against HDAC6 it was 5.02; at Recombinant human HDAC8, 5.06.
For `C=CCN1CCC2(CC1)C[C@@H]2C(=O)N[C@@H](CCCCCC(=O)CC)c1ncc(-c2cccc3c2C2CCC3N2CC=C)[nH]1` (stereo partly drawn) [Compound 180, (1S)—N-{(1S)-7-oxo-1-[5-(9-prop-2-en-1-yl-1,2,3,4-tetrahydro-1,4-epiminonaphthalen-5-yl)-1H-imidazol-2-yl]nonyl}-6-prop-2-en-1-yl-6-azaspiro[2.5]octane-1-carboxamide], in that order: 8.27, 7.53, 8.59, 5.67 and 6.57.
The like results for `CCN1CCC2(CC1)C[C@@H]2C(=O)N[C@@H](CCCCCC(=O)CC1CCC1)c1ncc(-c2cc3ccc(C)nc3cc2OC)o1` [Compound 184] were, in that order, 8.02, 7.41, 7.74, 5.03 and less than 4.35.
For `COc1cc2nc(C)ccc2cc1-c1cnc([C@H](CCCCCC(=O)CC2CCC2)NC(=O)[C@H]2CC23CCN(C)CC3)o1` [Compound 185], in that order: 7.82, 7.42, 7.59, 4.44 and less than 4.35.
Regarding `CCC(=O)CCCCC[C@H](NC(=O)[C@H]1CC12CCN(CC)CC2)c1ncc(-c2cc3nn(C)cc3cc2OC)o1` [Compound 189], the pIC50 at Recombinant human HDAC1 is 8.13; on Recombinant human HDAC2, 7.52; in assay [1] it was 8.63; against HDAC6 it was 6.80; on Recombinant human HDAC8 it was 4.56.
For `CCC(=O)CCCCC[C@H](NC(=O)[C@H]1CC12CCN(C)CC2)c1nnc(-c2cc3ccc(C)nc3cc2OC)o1` [Compound 191], in that order: 8.67, 8.28, 8.77, 5.69 and 4.37.
For `CCC(=O)CCCCC[C@H](NC(=O)C1=NOC2(CCN(C)CC2)C1)c1ncc(-c2cc3ccc(=O)n(C)c3cc2OC)o1` [Compound 193], in that order: 8.52, 7.96, 8.74, less than 6.05 and less than 6.05.
Regarding `COc1cc2nc(C)ccc2cc1-c1cnc([C@H](CCCCCC(=O)CC2CC2)NC(=O)[C@H]2CC23CCN(C)CC3)o1` [Compound 195, (1S)—N-{(1S)-8-cyclopropyl-1-[5-(7-methoxy-2-methylquinolin-6-yl)-1,3-oxazol-2-yl]-7-oxooctyl}-6-methyl-6-azaspiro[2.5]octane-1-carboxamide], the negative-log IC50 (pIC50) on Recombinant human HDAC1 was 9.07; on Recombinant human HDAC2, 8.01; in assay [1], 8.77; on HDAC6, 4.67; on Recombinant human HDAC8, 5.10.
Regarding `CCC(=O)CCCCC[C@H](NC(=O)C1=NOC2(CCN(C)CC2)C1)c1ncc(-c2cc3ccc(C)nc3cc2OC)o1` [Compound 196], the negative-log IC50 (pIC50) on Recombinant human HDAC1 is 8.85; at Recombinant human HDAC2 it was 8.22; in assay [1] it was 9.14; against HDAC6 it was 6.12; at Recombinant human HDAC8, less than 6.05.
As to `CCC(=O)CCCCC[C@H](NC(=O)[C@H]1CC12CCN(C)CC2)c1ncc(-c2cc3ccc(=O)n(C)c3cc2OC)o1` [Compound 198], the pIC50 at Recombinant human HDAC1 is 9.06; on Recombinant human HDAC2, 8.42; in assay [1], 9.19; against HDAC6, 6.37; at Recombinant human HDAC8, less than 6.05.
Consider `CCN1CCC2(CC1)C[C@@H]2C(=O)N[C@@H](CCCCCC(=O)CC1CC1)c1ncc(-c2ccc(F)cc2)[nH]1` [Compound 201], for which the negative logarithm of the IC50 (pIC50) was 8.14 on Recombinant human HDAC1; 7.49 on Recombinant human HDAC2; 8.09 in assay [1]; 4.45 against HDAC6; 4.85 at Recombinant human HDAC8.
As to `CCC(=O)CCCCC[C@H](NC(=O)C1=NOC2(CCN(CC)CC2)C1)c1ncc(-c2cc3ccc(C)nc3cc2OC)o1` [Compound 204], the pIC50 was 9.47 on Recombinant human HDAC1; 8.41 at Recombinant human HDAC2; 9.15 in assay [1]; 6.23 against HDAC6; less than 6.05 on Recombinant human HDAC8.
`CCC(=O)CCCCC[C@H](NC(=O)C1=NOC2(CCN(CC)CC2)C1)c1ncc(-c2cc3ccc(C)nc3cc2OC)[nH]1` [Compound 207]: the pIC50 at Recombinant human HDAC1 was 9.62; at Recombinant human HDAC2, 8.68; in assay [1] it was 9.44; at HDAC6, 5.87; on Recombinant human HDAC8 it was 5.80.
The like results for `CCC(=O)CCCCC[C@H](N)c1ncc(-c2cc3ccc(C)nc3cc2OC)[nH]1` [Compound 209, (S)-9-amino-9-(5-(7-methoxy-2-methylquinolin-6-yl)-1H-imidazol-2-yl)nonan-3-one] were, in that order, 7.28, 6.82, 7.67, less than 6.05 and 6.84.
On to `CCC(=O)CCCCC[C@H](NC(=O)[C@H]1CC12CCN(CC)CC2)c1nc(-c2cc3ccc(C)nc3cc2OC)cn1COC(=O)C(C)(C)C` [Compound 215, {2-[(1S)-1-({[(1S)-6-ethyl-6-azaspiro[2.5]oct-1-yl]carbonyl}amino)-7-oxononyl]-4-(7-methoxy-2-methylquinolin-6-yl)-1H-imidazol-1-yl}methyl 2,2-dimethylpropanoate], for which the pIC50 was 9.05 at Recombinant human HDAC1; 8.40 at Recombinant human HDAC2; 8.94 in assay [1]; less than 6.05 on HDAC6; less than 6.05 on Recombinant human HDAC8.
Take `CCC(=O)CCCCC[C@H](NC(=O)C1=NOC2(CCN(C)CC2)C1)c1ncc(-c2cc3ccncc3nc2OC)o1` [Compound 216]: the negative logarithm of the IC50 (pIC50) is 8.15 on Recombinant human HDAC1; 7.46 on Recombinant human HDAC2; 7.87 in assay [1]; 6.10 against HDAC6; less than 6.05 at Recombinant human HDAC8.
In the case of `CCC(=O)CCCCC[C@H](NCCN(C)C)c1ncc(-c2cc3ccc(C)nc3cc2OC)[nH]1` [Compound 217, (9S)-9-{[2-(dimethylamino)ethyl]amino}-9-[5-(7-methoxy-2-methylquinolin-6-yl)-1H-imidazol-2-yl]nonan-3-one], the pIC50 is 8.34 at Recombinant human HDAC1; 7.30 on Recombinant human HDAC2; 7.96 in assay [1]; less than 6.05 against HDAC6; less than 6.05 on Recombinant human HDAC8.
